As usually defined, the minimal effective dose is the smallest amount tested that counted as effective. High values mean a need for much substance, low ones an effect from little substance.

Assay [1] has as its system leukemia P388. The assay can be described thus: NCI studies against leukemia P388 (Appendix 1, MDA and T/C). It counts as in vivo, murine. Conditions: for response vs control in vivo at 60 mg/kg: P388, dose 60,00 mg/kg; for response vs control in vivo at 120 mg/kg: P388, dose 120,00 mg/kg; for response vs control in vivo at 240 mg/kg: P388, dose 240,00 mg/kg; for STATUS (activity against leukemia P388): at the dose of the same line of the appendix table; for MDA against leukemia P388 / minimal effective dose: minor active dose reaching T/C≥120; for minimal effective dose: P388; for response vs control in vivo at 30 mg/kg: P388, dose 30,00 mg/kg. An excerpt:
On the other hand, murine transplantable leukemias are a good predictor of anti-leukemia activity in human beings (Kenis "Dose schedules and mode of administration of chemotherapeutic agents in man". Recent Results Cancer Res. 21, 54-61 (1969). Only those tests which use the survival times as an activity parameter are valid as predictors of antileukemia activity in human beings (for instance, leukemia p388 y L-1210), whilst "in vitro" tests (HeLa cells and other) are inappropriate (Llombart-Rodriguez, 1983). NCI data generated in the last years confirm the value of above assertions to compounds of general formula [drawing 1] as described in U.S. Pat. No. 4,204,063.
Experimental results from NCI studies against leukemia P388 are shown in an appendix (Appendix 1). In order to simplify the presentation of results we have extracted from these the minor active dose (MDA) against leukemia P388--for each compound. MDA is defined as the minor dose of the drug that reaches the minimal activity criteria of the NCI. For leukemia P388 this criteria on the basis of survival time is a minimal increase in survival of treated animals over a control resulting in a T/C≥120. In the following table the MDA for 14 examples are presented. In cases where none of the tested doses reached the MDA, the MDA is indicated as "NONE". The column "cytotoxic activity" has been extracted from U.S. Pat. No. 4,204,063. Data are presented in order of the highest to lowest cytotoxic activity.

For assay [2], the system named is HeLa cells. Conditions: cytotoxic activity in vitro, monolayer; cited from earlier work.

Values after ≈ are worked out from the molar mass of the structure shown. Where only a bound is given, the exact number is not on record here.

Take `CCN(CC)CCCN1C(=O)c2cccc3cc([N+](=O)[O-])cc(c23)C1=O` [Example 3]: in assay [1] (Mus musculus), the response vs control in vivo at 60 mg/kg is 108%, the response vs control in vivo at 120 mg/kg came out at 103% and the response vs control in vivo at 240 mg/kg worked out at 114%. In addition, in assay [1], the “STATUS (activity against leukemia P388)” value was “None dose tested” and the “MDA against leukemia P388” value was “NONE”. Further, in assay [2], the “ID50 in HeLa cells” value was 20.0 µg/mL (≈ 56.3 µM).
In assay [1] (Mus musculus), `O=C1c2cccc3cc([N+](=O)[O-])cc(c23)C(=O)N1CCN1CCOCC1` [Example 4] had a response vs control in vivo at 60 mg/kg of 96%, a response vs control in vivo at 120 mg/kg of 96% and a response vs control in vivo at 240 mg/kg of 100%. Moreover, in assay [1], the “STATUS (activity against leukemia P388)” value is on record as “None dose tested” and the “MDA against leukemia P388” value is reported as “NONE”. Also, the “ID50 in HeLa cells” value in assay [2] was 6.0 µg/mL (≈ 16.9 µM).
`CCN(CC)CCN1C(=O)c2cccc3cc(N)cc(c23)C1=O` [Example 10]: the response vs control in vivo at 1 mg worked out at 101% in assay [1] (Mus musculus, P388, dose 1,56 mg as printed) and 100% in assay [1] (Mus musculus, P388, dose 1,60 mg as printed). The response vs control in vivo at 3 mg in assay [1] (Mus musculus, P388, dose 3,12 mg as printed) amounted to 98%; in assay [1] (Mus musculus, P388, dose 3,20 mg as printed) it was 108%. For the same molecule, the response vs control in vivo at 6 mg in assay [1] (Mus musculus, P388, dose 6,25 mg as printed) was 98%; in assay [1] (Mus musculus, P388, dose 6,50 mg as printed), 107%. The response vs control in vivo at 13 mg in assay [1] (Mus musculus, P388, dose 13,00 mg as printed) came to 121%. The same molecule gave a response vs control in vivo at 25 mg in assay [1] (Mus musculus, P388, dose 25,00 mg as printed) of 114%. Besides, in assay [1] (Mus musculus, P388, dose 26,00 mg as printed), the response vs control in vivo at 26 mg turned out to be 124%. The molecule further yielded a response vs control in vivo at 50 mg in assay [1] (Mus musculus, P388, dose 50,00 mg as printed) of 160%. This molecule also displayed a response vs control in vivo at 100 mg in assay [1] (Mus musculus, P388, dose 100,00 mg as printed) below 100%. Moreover, the minimal effective dose in assay [1] (Mus musculus) is 3.2 mg/kg. Besides, in assay [1], the “STATUS (activity against leukemia P388)” value is reported as “T/C > 120 active”. Besides, in assay [2], the “ID50 in HeLa cells” value was 3.0 µg/mL (≈ 9.63 µM).
`Nc1cc2c3c(cccc3c1)C(=O)N(CCN1CCCC1)C2=O` [Example 11] showed a response vs control in vivo at 24 mg/kg in assay [1] (Mus musculus, P388, dose 24,20 mg/kg) of 160%. In assay [1] (Mus musculus, P388, dose 48,39 mg/kg), this molecule showed a response vs control in vivo at 48 mg/kg of 96%. In assay [1] (Mus musculus), this molecule yielded a minimal effective dose of 6.5 mg/kg. Further, the “STATUS (activity against leukemia P388)” value in assay [1] is reported as “T/C > 120 active”. The “ID50 in HeLa cells” value in assay [2] is 1.5 µg/mL (≈ 4.85 µM).
In assay [1] (Mus musculus), `Nc1cc2c3c(cccc3c1)C(=O)N(CCN1CCCCC1)C2=O` [Example 12] displayed a response vs control in vivo at 60 mg/kg of 108%, a response vs control in vivo at 120 mg/kg of 103% and a response vs control in vivo at 240 mg/kg of 114%. Further, in assay [1], the “STATUS (activity against leukemia P388)” value is “None dose tested” and the “MDA against leukemia P388” value is given as “NONE”. Also, the “ID50 in HeLa cells” value in assay [2] was 8.0 µg/mL (≈ 24.7 µM).
On to `Nc1cc2c3c(cccc3c1)C(=O)N(CCN1CCOCC1)C2=O` [Example 13], for which, in assay [1] (Mus musculus), the response vs control in vivo at 60 mg/kg was 102%, the response vs control in vivo at 120 mg/kg is 102% and the response vs control in vivo at 240 mg/kg is 109%. Further, in assay [1], the “STATUS (activity against leukemia P388)” value is reported as “None dose tested” and the “MDA against leukemia P388” value is on record as “NONE”. Further, in assay [2], the “ID50 in HeLa cells” value is 10.0 µg/mL (≈ 30.7 µM).
As for `O=C1c2cccc3cc(O)cc(c23)C(=O)N1CCN1CCOCC1` [Example 24], in assay [1] (Mus musculus), the response vs control in vivo at 30 mg/kg was found to be 107%, the response vs control in vivo at 60 mg/kg came to 110%, the response vs control in vivo at 120 mg/kg amounted to 117% and the response vs control in vivo at 240 mg/kg is 127%. Besides, the minimal effective dose in assay [1] (Mus musculus) was determined as 240 mg/kg. In addition, the “STATUS (activity against leukemia P388)” value in assay [1] was “T/C > 120 active”. In assay [2], the “ID50 in HeLa cells” value was 3.5 µg/mL (≈ 10.7 µM).
In assay [1] (Mus musculus), `COc1cc2c3c(cccc3c1)C(=O)N(CCN(C)C)C2=O` [Example 26] came in with a minimal effective dose of 18.9 mg/kg. Also, the “STATUS (activity against leukemia P388)” value in assay [1] is listed as “T/C > 120 active”. The “ID50 in HeLa cells” value in assay [2] was 1.5 µg/mL (≈ 5.03 µM).
Molecule `COc1cc2c3c(cccc3c1)C(=O)N(CCN1CCCC1)C2=O` [Example 27] displayed a response vs control in vivo at 17 mg/kg in assay [1] (Mus musculus, P388, dose 17,30 mg/kg) of 112%. In assay [1] (Mus musculus, P388, dose 34,70 mg/kg), the response vs control in vivo at 34 mg/kg amounted to 116%. This molecule also showed a response vs control in vivo at 50 mg/kg in assay [1] (Mus musculus, P388, dose 50,00 mg/kg) of 100%. Also, the response vs control in vivo at 69 mg/kg in assay [1] (Mus musculus, P388, dose 69,30 mg/kg) amounted to 116%. The same molecule gave a response vs control in vivo at 100 mg/kg in assay [1] (Mus musculus, P388, dose 100,00 mg/kg) of 101%. In assay [1] (Mus musculus, P388, dose 200,00 mg/kg), this molecule displayed a response vs control in vivo at 200 mg/kg of 100%. For the same molecule, in assay [1], the “STATUS (activity against leukemia P388)” value is “None dose tested” and the “MDA against leukemia P388” value was “NONE”. For the same molecule, in assay [1] (dose 138,60 mg/kg), the T/C % result was “Toxic”. The “ID50 in HeLa cells” value in assay [2] is 0.75 µg/mL (≈ 2.31 µM).
In assay [1] (Mus musculus), `CCOC(=O)Nc1cc2c3c(cccc3c1)C(=O)N(CCN(C)C)C2=O` [Example 28] displayed a response vs control in vivo at 30 mg/kg of 123% and a minimal effective dose of 30 mg/kg. Further, in assay [1], the “STATUS (activity against leukemia P388)” value is recorded as “T/C > 120 active”. For the same molecule, the “ID50 in HeLa cells” value in assay [2] is 10.0 µg/mL (≈ 28.1 µM).
For `CCOC(=O)Nc1cc2c3c(cccc3c1)C(=O)N(CCN1CCCC1)C2=O` [Example 29], in assay [1] (Mus musculus), the response vs control in vivo at 30 mg/kg was determined as 127%, the response vs control in vivo at 60 mg/kg was found to be 131%, the response vs control in vivo at 120 mg/kg is 135% and the response vs control in vivo at 240 mg/kg turned out to be 158%. In assay [1] (Mus musculus), this molecule displayed a minimal effective dose of 30 mg/kg. Moreover, the “STATUS (activity against leukemia P388)” value in assay [1] is given as “T/C > 120 active”. In addition, the “ID50 in HeLa cells” value in assay [2] is 10.0 µg/mL (≈ 26.2 µM).
In assay [1] (Mus musculus, P388, dose 3,75 mg/kg), `CC(=O)Nc1cc2c3c(cccc3c1)C(=O)N(CCN(C)C)C2=O` [Example 30] yielded a response vs control in vivo at 3.75 mg/kg of 137%. The response vs control in vivo at 7 mg/kg in assay [1] (Mus musculus, P388, dose 7,50 mg/kg) stood at 144%. In assay [1] (Mus musculus), this molecule showed a response vs control in vivo at 60 mg/kg below 100% and a minimal effective dose of 3.75 mg/kg. In assay [1], the “STATUS (activity against leukemia P388)” value is given as “T/C > 120 active”. Also, the T/C % result in assay [1] (dose 120,00 mg/kg) was “Toxic”. The T/C % result in assay [1] (dose 240,00 mg/kg) was “Toxic”. Moreover, the “ID50 in HeLa cells” value in assay [2] is 4.0 µg/mL (≈ 12.3 µM).
In the case of `CC(=O)Nc1cc2c3c(cccc3c1)C(=O)N(CCN1CCCC1)C2=O` [Example 31], in assay [1] (Mus musculus), the response vs control in vivo at 30 mg/kg was 186%, the response vs control in vivo at 60 mg/kg was found to be 184%, the response vs control in vivo at 120 mg/kg amounted to 107% and the minimal effective dose is 30 mg/kg. Further, the “STATUS (activity against leukemia P388)” value in assay [1] is given as “T/C > 120 active”. For the same molecule, the “ID50 in HeLa cells” value in assay [2] is 5.0 µg/mL (≈ 14.2 µM).

Source of the values: patent US5183821A, “Method for treating leukemias using N-(2-dimethylaminoethyl)-3-amino-1,8-naphthalimide for treating leukemias and solid tumors” (priority 1991, dated 1993).
